The source of these data is article PMC2248166, “Quantitative peptide binding motifs for 19 human and mouse MHC class I molecules derived using positional scanning combinatorial peptide libraries” (Immunome Research, 2008).

Targets include HLA B*0801 (Homo sapiens, UniProt P01889, A93T/A95T/D138N/E176V/E187T/K202T/Q94N/R180D/S35A/V36M/Y33D/Y91F); HLA A*3001 (Homo sapiens, UniProt P04439, D140H/D185E/E176W/F33S/G80R/H175R/K168Q/R138E/R41S); HLA B*1501 (Homo sapiens, UniProt P01889, A329T/A93T/A95T/C349S/D201E/D98Y/E187L/E204Q/E69M/E70A/K202T/N87E/Q94N/R155S/R180W/S121R/S35A/S48A/V306I/V36M/Y140S/Y91S); HLA A*3201 (Homo sapiens, UniProt P04439, A270S/D101S/D185E/E176V/E277Q/F133L/G103R/G107R/G231S/H175R/I121M/I218V/I322F/K168Q/L105A/L300P/L318F/M331R/P208A/P217A/Q94H/R106L/R138Q/S129P/T104I/T323A/T345S/V100E/V321M/V358M); HLA B*1503 (Homo sapiens, UniProt P01889, A329T/A93T/A95T/C349S/D201E/D98Y/E187L/E204Q/K202T/N87E/Q94N/R155S/R180L/S121R/S35A/V306I/V36M/Y140S/Y91S).

What all share (test): biochemical
What all share (format): binding

SMILES strings stand for the structures. Where a SMILES comes first, the peptide text is derived from it.

Sequence of HLA A*3001 (P04439 25-365 limits assumed, stated change not applied): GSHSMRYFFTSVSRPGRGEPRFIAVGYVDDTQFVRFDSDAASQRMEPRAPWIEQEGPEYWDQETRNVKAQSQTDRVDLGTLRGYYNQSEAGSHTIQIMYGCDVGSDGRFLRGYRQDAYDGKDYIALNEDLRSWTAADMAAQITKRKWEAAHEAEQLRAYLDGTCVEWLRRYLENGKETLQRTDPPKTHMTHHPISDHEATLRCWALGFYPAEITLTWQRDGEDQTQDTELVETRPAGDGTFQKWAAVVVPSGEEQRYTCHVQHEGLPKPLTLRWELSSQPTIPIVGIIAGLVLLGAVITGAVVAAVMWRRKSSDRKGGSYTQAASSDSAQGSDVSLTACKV

By IC50 is commonly meant the concentration at which inhibition is half-maximal. Read a high IC50 as lower potency. `CSCC[C@H](NC(=O)[C@H](C)NC(=O)[C@@H](N)CCSC)C(=O)N[C@@H](Cc1ccccc1)C(=O)N[C@@H](Cc1ccc(O)cc1)C(=O)N[C@@H](C)C(=O)N[C@@H](Cc1c[nH]cn1)C(=O)N[C@@H](C)C(=O)N[C@@H](CC(C)C)C(=O)O` [3102.0776] (H-MAMFYAHAL-OH) gave an IC50 against HLA B*0801 of 1.2 nM.
`CC(C)C[C@H](NC(=O)[C@H](CO)NC(=O)CNC(=O)[C@@H]1CCCN1C(=O)[C@H](CCCNC(=N)N)NC(=O)[C@H](Cc1ccccc1)NC(=O)[C@H](CCCCN)NC(=O)[C@H](Cc1ccccc1)NC(=O)[C@@H](N)CO)C(=O)O` [3102.0734] (H-SFKFRPGSL-OH) came in with an IC50 against HLA B*0801 of 3 nM.
Consider `CC[C@H](C)[C@H](NC(=O)[C@H](CC(N)=O)NC(=O)[C@H](Cc1ccccc1)NC(=O)[C@H](CCSC)NC(=O)[C@@H](N)CC(N)=O)C(=O)N[C@@H](CO)C(=O)N[C@@H](Cc1ccccc1)C(=O)N[C@@H](CCCNC(=N)N)C(=O)N[C@@H](Cc1ccccc1)C(=O)O` [3102.0348] (H-NMFNISFRF-OH), for which the IC50 was found to be 27 nM on HLA A*3001, 43 nM at HLA B*1501, 3.6 nM on HLA A*3201 and 19 nM against HLA B*1503.
As for `C[C@H](NC(=O)[C@H](Cc1ccccc1)NC(=O)[C@H](CO)NC(=O)[C@H](CS)NC(=O)[C@H](CCCNC(=N)N)NC(=O)[C@H](Cc1ccc(O)cc1)NC(=O)[C@H](CCCNC(=N)N)NC(=O)[C@H](CCCNC(=N)N)NC(=O)[C@@H](N)CO)C(=O)O` [3102.0625] (H-SRRYRCSFA-OH), on HLA B*0801, the IC50 worked out at 52 nM.
Consider `CC[C@H](C)[C@H](NC(=O)[C@H](Cc1c[nH]cn1)NC(=O)[C@H](CC(N)=O)NC(=O)[C@H](CCCCN)NC(=O)[C@H](CCCNC(=N)N)NC(=O)[C@H](Cc1ccccc1)NC(=O)[C@H](CCCNC(=N)N)NC(=O)[C@@H](NC(=O)[C@@H](N)Cc1ccc(O)cc1)[C@@H](C)CC)C(=O)O` [3102.0888] (H-YIRFRKNHI-OH), for which, on HLA B*0801, half-maximal inhibition (IC50) was put at 1.4 nM.
`CC[C@H](C)[C@H](NC(=O)[C@@H](N)CS)C(=O)N[C@@H](CCCCN)C(=O)N[C@@H](CO)C(=O)N[C@@H](Cc1c[nH]cn1)C(=O)N[C@@H](CO)C(=O)N[C@H](C(=O)N[C@@H](CO)C(=O)N[C@@H](CC(C)C)C(=O)O)C(C)C` [3102.0647] (H-CIKSHSVSL-OH) yielded an IC50 against HLA B*0801 of 2.3 nM.
The same measure, in the same setting: under `CC[C@H](C)[C@H](N)C(=O)N[C@@H](CCSC)C(=O)N[C@@H](CCCNC(=N)N)C(=O)N[C@@H](CCSC)C(=O)N[C@@H](CCCNC(=N)N)C(=O)N[C@@H](Cc1ccccc1)C(=O)N[C@@H](CCCCN)C(=O)N[C@@H](CCCCN)C(=O)NCC(=O)O` [3102.0777] (H-IMRMRFKKG-OH) stands 62 nM; under `CC[C@H](C)[C@H](NC(=O)[C@@H](NC(=O)[C@H](CC(N)=O)NC(=O)[C@H](CCCCN)NC(=O)[C@H](CCCNC(=N)N)NC(=O)[C@@H](NC(=O)[C@H](Cc1ccccc1)NC(=O)[C@H](CC(C)C)NC(=O)[C@@H](N)Cc1ccc(O)cc1)[C@@H](C)CC)C(C)C)C(=O)O` [3102.0531] (H-YLFIRKNVI-OH), 0.71 nM.
`CSCC[C@H](NC(=O)[C@@H](N)CCCNC(=N)N)C(=O)N[C@@H](CCCNC(=N)N)C(=O)N[C@@H](Cc1ccccc1)C(=O)N[C@@H](CCCCN)C(=O)N[C@@H](CCCCN)C(=O)NCC(=O)N[C@@H](C)C(=O)N[C@H](C(=O)O)C(C)C` [3102.0775] (H-RMRFKKGAV-OH) showed an IC50 on HLA B*0801 of 5.4 nM.
Molecule `CC[C@H](C)[C@H](NC(=O)[C@H](CCCCN)NC(=O)[C@@H](NC(=O)[C@H](CCCCN)NC(=O)[C@@H](NC(=O)[C@@H](N)CC(=O)O)[C@@H](C)CC)[C@@H](C)O)C(=O)N[C@@H](CCSC)C(=O)N[C@H](C(=O)N[C@@H](CC(C)C)C(=O)O)C(C)C` [3102.0683] (H-DIKTKIMVL-OH) yielded an IC50 against HLA B*0801 of 73 nM.
Same read-out and setting: under `CC[C@H](C)[C@H](NC(=O)[C@H](CCCNC(=N)N)NC(=O)[C@@H](N)Cc1ccc(O)cc1)C(=O)N[C@@H](C)C(=O)N[C@@H](CCCCN)C(=O)N[C@@H](Cc1ccccc1)C(=O)N[C@@H](CC(C)C)C(=O)N[C@@H](Cc1ccccc1)C(=O)N[C@@H](CCSC)C(=O)O` [3102.0708] (H-YRIAKFLFM-OH) stands 17 nM; under `CC(C)[C@H](NC(=O)[C@H](Cc1ccc(O)cc1)NC(=O)[C@H](CCCNC(=N)N)NC(=O)[C@H](Cc1ccccc1)NC(=O)[C@H](CS)NC(=O)[C@H](CCCCN)NC(=O)[C@H](Cc1ccccc1)NC(=O)[C@@H](N)Cc1ccccc1)C(=O)N[C@@H](Cc1ccccc1)C(=O)O` [3102.0760] (H-FFKCFRYVF-OH), 11 nM.
Take `CC[C@H](C)[C@H](NC(=O)[C@H](C)N)C(=O)N[C@@H](CCCCN)C(=O)N[C@@H](CC(C)C)C(=O)NCC(=O)N[C@@H](Cc1ccccc1)C(=O)N[C@@H](CCCCN)C(=O)N[C@@H](CO)C(=O)N[C@@H](CC(C)C)C(=O)O` [3102.0664] (H-AIKLGFKSL-OH): the IC50 against HLA B*0801 was found to be 41 nM. Compared with the last molecule, the IC50 is about 3.7-fold higher.
In the case of `CC[C@H](C)[C@H](N)C(=O)N[C@@H](C)C(=O)N[C@@H](CO)C(=O)N[C@H](C(=O)N[C@@H](CC(C)C)C(=O)N[C@H](C(=O)N[C@H](C(=O)N[C@H](C(=O)N[C@H](C(=O)O)[C@@H](C)CC)[C@@H](C)O)C(C)C)[C@@H](C)CC)[C@@H](C)O` [3102.0358] (H-IASTLIVTI-OH), the values for the IC50 on HLA A*3001, against HLA B*1501 and on HLA A*3201 were 10 nM, 156 nM and 74 nM, respectively.
For the molecule `CC[C@H](C)[C@H](NC(=O)[C@H](CO)NC(=O)[C@@H](N)CC(C)C)C(=O)N[C@@H](Cc1ccccc1)C(=O)N[C@@H](Cc1ccccc1)C(=O)N[C@@H](Cc1ccc(O)cc1)C(=O)N[C@@H](CO)C(=O)N[C@@H](CO)C(=O)N[C@@H](Cc1ccccc1)C(=O)O` [3102.1177] (H-LSIFFYSSF-OH), the IC50 was 17 nM on HLA B*1501, 129 nM against HLA A*3201 and 0.22 nM against HLA B*1503.
For `CC[C@H](C)[C@H](NC(=O)[C@@H](N)CCCCN)C(=O)N[C@@H](Cc1ccc(O)cc1)C(=O)N[C@@H](CC(N)=O)C(=O)N[C@H](C(=O)N[C@H](C(=O)N[C@@H](CC(N)=O)C(=O)N1CCC[C@H]1C(=O)N[C@@H](Cc1ccccc1)C(=O)O)[C@@H](C)O)C(C)C` [3102.1223] (H-KIYNVTNPF-OH), the IC50 on HLA B*1501 turned out to be 2.7 nM; at HLA A*3201 it was 4.3 nM; against HLA B*1503, 7.5 nM.
For the molecule `CC[C@H](C)[C@H](NC(=O)[C@@H](NC(=O)[C@@H](NC(=O)[C@@H]1CCCN1C(=O)[C@H](CCCNC(=N)N)NC(=O)[C@H](Cc1ccccc1)NC(=O)[C@H](Cc1ccccc1)NC(=O)[C@@H](NC(=O)[C@@H](N)CCCCN)[C@@H](C)CC)[C@@H](C)O)[C@@H](C)O)C(=O)O` [3102.0470] (H-KIFFRPTTI-OH), the IC50 was found to be 17 nM at HLA A*3001, 93 nM on HLA B*1501 and 1.1 nM against HLA A*3201.
As for `CC[C@H](C)[C@H](NC(=O)[C@@H]1CCCN1C(=O)[C@@H](NC(=O)[C@H](CO)NC(=O)[C@H](CC(N)=O)NC(=O)[C@H](Cc1ccc(O)cc1)NC(=O)[C@H](CO)NC(=O)[C@H](CCC(N)=O)NC(=O)[C@@H](N)CCSC)C(C)C)C(=O)O` [3102.0353] (H-MQSYNSVPI-OH), the IC50 at HLA B*1501 turned out to be 1.6 nM; at HLA A*3201 it was 2.5 nM; against HLA B*1503, 0.73 nM.
As to `CC[C@H](C)[C@H](NC(=O)[C@@H](NC(=O)[C@@H](N)CCCCN)[C@@H](C)O)C(=O)N[C@@H](CC(N)=O)C(=O)N[C@@H](C)C(=O)N[C@@H](CC(C)C)C(=O)N[C@H](C(=O)N[C@@H](Cc1ccc(O)cc1)C(=O)N[C@@H](Cc1ccccc1)C(=O)O)C(C)C` [3102.0359] (H-KTINALVYF-OH), the IC50 at HLA B*1501 was 0.37 nM; on HLA A*3201, 8.7 nM; at HLA B*1503, 23 nM.
Take `CC[C@H](C)[C@H](NC(=O)[C@H](CCCCN)NC(=O)[C@H](CC(N)=O)NC(=O)[C@H](CO)NC(=O)[C@H](Cc1ccc(O)cc1)NC(=O)[C@H](CCCCN)NC(=O)[C@H](CC(C)C)NC(=O)[C@@H](NC(=O)[C@@H](N)CCCCN)[C@@H](C)O)C(=O)O` [3102.0326] (H-KTLKYSNKI-OH): the results for the IC50 against HLA A*3001, against HLA B*1501 and on HLA A*3201 were 38 nM, 124 nM and 1.9 nM, respectively.
As to `CC[C@H](C)[C@H](NC(=O)[C@H](CC(C)C)NC(=O)[C@H](Cc1ccccc1)NC(=O)[C@@H](NC(=O)[C@H](CO)NC(=O)[C@H](Cc1ccc(O)cc1)NC(=O)[C@H](CC(C)C)NC(=O)[C@@H](N)CCCNC(=N)N)[C@@H](C)CC)C(=O)N[C@@H](Cc1ccccc1)C(=O)O` [3102.1049] (H-RLYSIFLIF-OH), the IC50 was 3.4 nM against HLA B*1501, 6.9 nM on HLA A*3201 and 0.16 nM against HLA B*1503.
`CC[C@H](C)[C@H](N)C(=O)N[C@H](C(=O)N[C@@H](CC(C)C)C(=O)N[C@H](C(=O)N[C@@H](CC(N)=O)C(=O)N[C@H](C(=O)N[C@H](C(=O)N[C@@H](CC(N)=O)C(=O)N[C@H](C(=O)O)[C@@H](C)CC)C(C)C)C(C)C)[C@@H](C)O)[C@@H](C)O` [3102.0320] (H-ITLTNVVNI-OH): the IC50 worked out at 35 nM on HLA A*3001, 12 nM at HLA B*1501, 77 nM against HLA A*3201 and 22 nM on HLA B*1503.
For `CC(C)C[C@H](N)C(=O)N[C@@H](CO)C(=O)N[C@@H](Cc1ccc(O)cc1)C(=O)N[C@@H](Cc1ccc(O)cc1)C(=O)N[C@H](C(=O)N[C@H](C(=O)N[C@@H](Cc1ccc(O)cc1)C(=O)N[C@H](C(=O)N[C@@H](Cc1ccccc1)C(=O)O)C(C)C)C(C)C)C(C)C` [3102.1098] (H-LSYYVVYVF-OH), the IC50 on HLA B*1501 is 6.4 nM; at HLA A*3201 it was 280 nM; against HLA B*1503, 19 nM.
